pIC50: −log10 of the molar value.
System: 192522-019-R-J2-PDC complex tumor spheroid viability
Test: Anticancer human tumor 192522-019-R-J2-PDC patient-derived colon adenocarcinoma cell line growth inhibition [POLQ]
Settings: for pIC50: curve of first compound; for viability, T/C: stronger effect = lower value
Summary of the method: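 Patient-derived tumour cells were co-cultured with HUVEC and mesenchymal stem cells as multicellular spheroids at 37 °C. They were treated with POLQ inhibitors (novobiocin, ART-558, RP6685) alone or combined with other agents. Top concentrations were at or near clinical Cmax (otherwise 10 microM; SN-38 at 1 microM), decreasing in half-log steps.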

[1] = second compound 0.0316 µM, first compound 0.00316 µM
[2] = second compound 0.0316 µM, first compound 0.01 µM
[3] = second compound 0.0316 µM, first compound 0.0316 µM
[4] = second compound 0.0316 µM, first compound 0.1 µM
[5] = second compound 0.1 µM, first compound 0.00316 µM
[6] = second compound 0.1 µM, first compound 0.01 µM
[7] = second compound 0.1 µM, first compound 0.0316 µM
[8] = second compound 0.1 µM, first compound 0.1 µM
[9] = second compound 0.316 µM, first compound 0.00316 µM
[10] = second compound 0.316 µM, first compound 0.01 µM
[11] = second compound 0.316 µM, first compound 0.0316 µM
[12] = second compound 0.316 µM, first compound 0.1 µM
[13] = second compound 1 µM, first compound 0.00316 µM
[14] = second compound 1 µM, first compound 0.01 µM
[15] = second compound 1 µM, first compound 0.0316 µM
[16] = second compound 1 µM, first compound 0.1 µM
[17] = second compound 3.16 µM, first compound 0.00316 µM
[18] = second compound 3.16 µM, first compound 0.01 µM
[19] = second compound 3.16 µM, first compound 0.0316 µM
[20] = second compound 3.16 µM, first compound 0.1 µM
[21] = second compound 10 µM, first compound 0.00316 µM
[22] = second compound 10 µM, first compound 0.01 µM
[23] = second compound 10 µM, first compound 0.0316 µM
[24] = second compound 10 µM, first compound 0.1 µM
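Note: spheroids exposed to drugs for seven days before reading.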
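Throughout, for viability, T/C: 100% = DMSO vehicle control viability in luminescence.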

Q: With `COc1cccc(OCCCN)c1-c1cc(Nc2cnc(C#N)cn2)n[nH]1` + Cc1cccc(N(C)C(=O)C2C(O)CCN2c2nc(C)cc(C(F)(F)F)c2C#N)c1 as the compound, how does the pIC50 (second compound 0.0316 µM) read?
A: Its pIC50 is 7.55.

Q: What about the pIC50 (second compound 0.1 µM) of the same compound?
A: The pIC50 was 7.52.

Q: And the pIC50 (second compound 0.316 µM)?
A: The pIC50 was 7.32.

Q: What about the pIC50 (second compound 1 µM) of the same compound?
A: Its pIC50 is 7.15.

Q: What about the pIC50 (second compound 3.16 µM) of the same compound?
A: Its pIC50 is 7.23.

Q: What about the pIC50 (second compound 10 µM) of the same compound?
A: Its pIC50 is 7.26.

Q: And the viability, T/C [1]?
A: The viability, T/C was 91.4%.

Q: What about the viability, T/C [2] of the same compound?
A: The viability, T/C was 92.1%.

Q: And the viability, T/C [3]?
A: The viability, T/C was 45.4%.

Q: And the viability, T/C [4]?
A: The viability, T/C was 41%.

Q: And the viability, T/C (second compound 0.0316 µM, first compound 0.316 µM)?
A: The viability, T/C was 39.8%.

Q: And the viability, T/C (second compound 0.0316 µM, first compound 1 µM)?
A: Its viability, T/C is 38%.

Q: What about the viability, T/C [5] of the same compound?
A: Its viability, T/C is 107%.

Q: What about the viability, T/C [6] of the same compound?
A: Its viability, T/C is 83.4%.

Q: What about the viability, T/C [7] of the same compound?
A: Its viability, T/C is 49.5%.

Q: What about the viability, T/C [8] of the same compound?
A: Its viability, T/C is 35.5%.

Q: What about the viability, T/C (second compound 0.1 µM, first compound 0.316 µM) of the same compound?
A: The viability, T/C was 41.1%.

Q: What about the viability, T/C (second compound 0.1 µM, first compound 1 µM) of the same compound?
A: The viability, T/C was 39%.

Q: What about the viability, T/C [9] of the same compound?
A: The viability, T/C was 100%.

Q: And the viability, T/C [10]?
A: The viability, T/C was 86.2%.

Q: What about the viability, T/C [11] of the same compound?
A: Its viability, T/C is 54%.

Q: What about the viability, T/C [12] of the same compound?
A: Its viability, T/C is 44%.

Q: And the viability, T/C (second compound 0.316 µM, first compound 0.316 µM)?
A: Its viability, T/C is 38.1%.

Q: What about the viability, T/C (second compound 0.316 µM, first compound 1 µM) of the same compound?
A: The viability, T/C was 43.4%.

Q: And the viability, T/C [13]?
A: The viability, T/C was 115%.

Q: And the viability, T/C [14]?
A: The viability, T/C was 97.4%.

Q: What about the viability, T/C [15] of the same compound?
A: Its viability, T/C is 62%.

Q: And the viability, T/C [16]?
A: The viability, T/C was 44.9%.

Q: What about the viability, T/C (second compound 1 µM, first compound 0.316 µM) of the same compound?
A: The viability, T/C was 45.3%.

Q: And the viability, T/C (second compound 1 µM, first compound 1 µM)?
A: The viability, T/C was 36.8%.

Q: And the viability, T/C [17]?
A: The viability, T/C was 108%.

Q: And the viability, T/C [18]?
A: Its viability, T/C is 99.2%.

Q: What about the viability, T/C [19] of the same compound?
A: Its viability, T/C is 58.8%.

Q: What about the viability, T/C [20] of the same compound?
A: The viability, T/C was 41.5%.

Q: And the viability, T/C (second compound 3.16 µM, first compound 0.316 µM)?
A: Its viability, T/C is 44.1%.

Q: What about the viability, T/C (second compound 3.16 µM, first compound 1 µM) of the same compound?
A: Its viability, T/C is 39.9%.

Q: And the viability, T/C [21]?
A: Its viability, T/C is 105%.

Q: And the viability, T/C [22]?
A: The viability, T/C was 89.4%.

Q: And the viability, T/C [23]?
A: Its viability, T/C is 53%.

Q: And the viability, T/C [24]?
A: The viability, T/C was 47.2%.

Q: What about the viability, T/C (second compound 10 µM, first compound 0.316 µM) of the same compound?
A: The viability, T/C was 48%.

Q: And the viability, T/C (second compound 10 µM, first compound 1 µM)?
A: Its viability, T/C is 43.6%.

Q: With `Cn1ncnc1[C@H]1c2n[nH]c(=O)c3cc(F)cc(c23)N[C@@H]1c1ccc(F)cc1` + Cc1cccc(N(C)C(=O)C2C(O)CCN2c2nc(C)cc(C(F)(F)F)c2C#N)c1 as the compound, how does the pIC50 (second compound 0.0316 µM) read?
A: Its pIC50 is under 7.00.

Q: And the pIC50 (second compound 0.1 µM)?
A: The pIC50 was under 7.00.

Q: What about the pIC50 (second compound 0.316 µM) of the same compound?
A: Its pIC50 is under 7.00.

Q: And the pIC50 (second compound 1 µM)?
A: The pIC50 was under 7.00.

Q: What about the pIC50 (second compound 3.16 µM) of the same compound?
A: Its pIC50 is under 7.00.

Q: And the pIC50 (second compound 10 µM)?
A: Its pIC50 is under 7.00.

Q: And the viability, T/C (second compound 0.0316 µM, first compound 0.000316 µM)?
A: Its viability, T/C is 109%.

Q: What about the viability, T/C (second compound 0.0316 µM, first compound 0.001 µM) of the same compound?
A: The viability, T/C was 96.1%.

Q: What about the viability, T/C [1] of the same compound?
A: Its viability, T/C is 96.3%.

Q: What about the viability, T/C [2] of the same compound?
A: The viability, T/C was 103%.

Q: What about the viability, T/C [3] of the same compound?
A: Its viability, T/C is 110%.

Q: What about the viability, T/C [4] of the same compound?
A: The viability, T/C was 88.6%.

Q: And the viability, T/C (second compound 0.1 µM, first compound 0.000316 µM)?
A: The viability, T/C was 99.2%.

Q: What about the viability, T/C (second compound 0.1 µM, first compound 0.001 µM) of the same compound?
A: Its viability, T/C is 96.3%.

Q: What about the viability, T/C [5] of the same compound?
A: The viability, T/C was 105%.

Q: And the viability, T/C [6]?
A: The viability, T/C was 101%.

Q: And the viability, T/C [7]?
A: Its viability, T/C is 108%.

Q: What about the viability, T/C [8] of the same compound?
A: Its viability, T/C is 101%.

Q: And the viability, T/C (second compound 0.316 µM, first compound 0.000316 µM)?
A: The viability, T/C was 111%.

Q: What about the viability, T/C (second compound 0.316 µM, first compound 0.001 µM) of the same compound?
A: The viability, T/C was 103%.

Q: And the viability, T/C [9]?
A: Its viability, T/C is 114%.

Q: And the viability, T/C [10]?
A: The viability, T/C was 105%.

Q: And the viability, T/C [11]?
A: Its viability, T/C is 103%.

Q: And the viability, T/C [12]?
A: Its viability, T/C is 102%.

Q: What about the viability, T/C (second compound 1 µM, first compound 0.000316 µM) of the same compound?
A: Its viability, T/C is 110%.

Q: And the viability, T/C (second compound 1 µM, first compound 0.001 µM)?
A: The viability, T/C was 108%.

Q: And the viability, T/C [13]?
A: The viability, T/C was 109%.

Q: And the viability, T/C [14]?
A: Its viability, T/C is 103%.

Q: What about the viability, T/C [15] of the same compound?
A: The viability, T/C was 100%.

Q: And the viability, T/C [16]?
A: Its viability, T/C is 95.3%.

Q: What about the viability, T/C (second compound 3.16 µM, first compound 0.000316 µM) of the same compound?
A: The viability, T/C was 125%.

Q: And the viability, T/C (second compound 3.16 µM, first compound 0.001 µM)?
A: Its viability, T/C is 106%.

Q: And the viability, T/C [17]?
A: The viability, T/C was 112%.

Q: What about the viability, T/C [18] of the same compound?
A: The viability, T/C was 101%.

Q: What about the viability, T/C [19] of the same compound?
A: Its viability, T/C is 118%.

Q: And the viability, T/C [20]?
A: The viability, T/C was 96.9%.

Q: What about the viability, T/C (second compound 10 µM, first compound 0.000316 µM) of the same compound?
A: Its viability, T/C is 114%.

Q: What about the viability, T/C (second compound 10 µM, first compound 0.001 µM) of the same compound?
A: The viability, T/C was 103%.

Q: And the viability, T/C [21]?
A: The viability, T/C was 119%.

Q: What about the viability, T/C [22] of the same compound?
A: The viability, T/C was 102%.

Q: And the viability, T/C [23]?
A: The viability, T/C was 111%.

Q: And the viability, T/C [24]?
A: Its viability, T/C is 101%.
